Source: PMC6847993 (Drug Design, Development and Therapy, 2019)

Target: XLF (Homo sapiens, UniProt Q9H9Q4)
Assay: Thermoshift assay of XLF stability in cells
Type: cell-based

XLF, sequence (Q9H9Q4 whole entry): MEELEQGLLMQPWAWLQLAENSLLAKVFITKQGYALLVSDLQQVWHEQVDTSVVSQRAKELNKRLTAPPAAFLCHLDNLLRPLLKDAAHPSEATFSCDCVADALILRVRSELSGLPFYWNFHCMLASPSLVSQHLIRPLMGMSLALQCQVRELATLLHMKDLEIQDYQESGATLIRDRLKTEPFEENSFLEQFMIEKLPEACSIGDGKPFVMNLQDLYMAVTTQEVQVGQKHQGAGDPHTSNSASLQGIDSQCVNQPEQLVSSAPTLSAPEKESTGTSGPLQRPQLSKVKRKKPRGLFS

Structure (SMILES) | Interaction with XLF (XLF stability)
COc1cc(O)cc(CCc2ccc(O)c(OC)c2)c1 [Gigantol, gigantol] | interacted with XLF
Oc1ccc(/C=C/c2cc(O)cc(O)c2)cc1 [resveratrol] | interacted with XLF
CC[C@]1(O)C[C@H]2CN(CCc3c([nH]c4ccccc34)[C@@](C(=O)OC)(c3cc4c(cc3OC)N(C=O)[C@H]3[C@@](O)(C(=O)OC)[C@H](OC(C)=O)[C@]5(CC)C=CCN6CC[C@]43[C@@H]65)C2)C1 [vincristine] | interacted with XLF
